ChEMBL document CHEMBL2057160, “Experimental and 'in silico' analysis of the effect of pH on HIV-1 protease inhibitor affinity: implications for the charge state of the protein ionogenic groups” (Bioorg Med Chem, 2012)

Key:
[1] = target: T1, Protease (Human immunodeficiency virus 1, UniProt Q9YQ12); assay: Binding affinity to Human immunodeficiency virus 1 protease by SPR biosensor interaction analysis at pH 7.4
[2] = target: T1, Protease; assay: Binding affinity to Human immunodeficiency virus 1 protease by SPR biosensor interaction analysis at pH 4.1
[3] = target: T1, Protease; assay: Binding affinity to Human immunodeficiency virus 1 protease by SPR biosensor interaction analysis at pH 5.1

T1 sequence (Q9YQ12 whole entry): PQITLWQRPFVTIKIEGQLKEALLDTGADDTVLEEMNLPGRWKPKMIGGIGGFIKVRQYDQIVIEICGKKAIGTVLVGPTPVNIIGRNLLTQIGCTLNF

Kd [1] [nM] | Kd [2] [nM] | Kd [3] [nM] | Structure (SMILES)
3.4 | 37.6 | 2.99 | Cc1c(O)cccc1C(=O)N[C@@H](CSc1ccccc1)[C@H](O)CN1C[C@H]2CCCC[C@H]2C[C@H]1C(=O)NC(C)(C)C
8150 | 208 | 759 | CC(=O)N[C@H](C(=O)N[C@H](C(=O)N[C@@H](CC(C)C)[C@@H](O)CC(=O)N[C@@H](C)C(=O)N[C@@H](CC(C)C)[C@@H](O)CC(=O)O)C(C)C)C(C)C [ACETYLPEPSTATIN]
13.9 | 1.14 | 1 | O=C(N[C@H]1c2ccccc2C[C@H]1O)[C@H](OCc1ccccc1)[C@H](O)[C@@H](O)[C@@H](OCc1ccccc1)C(=O)N[C@H]1c2ccccc2C[C@H]1O
10.8 | 2.97 | 3 | CNC(=O)[C@@H](NC(=O)[C@H](OCc1ccccc1)[C@H](O)[C@@H](O)[C@@H](OCc1ccccc1)C(=O)N[C@H](C(=O)NC)C(C)C)C(C)C
6.95 | 1.83 | 1.84 | O=C1N(Cc2ccc(CO)cc2)[C@H](COc2ccccc2)[C@H](O)[C@@H](O)[C@@H](COc2ccccc2)N1Cc1ccc(CO)cc1
